Measured values reported in patent publication US9732063B2, “Kinase inhibitors” (RESPIVERT LIMITED, priority 2012, dated 2017).
Like-named read-outs stand apart in the source and are kept apart here. Each block holds one molecule with its values, some of them ahead of it.

Key:
HT29 cells = assay: IL-1β-induced IL-8 release in HT29 cells; assay type: cell-based; settings: Homo sapiens, HT-29, read-out: IC50 Values for Inhibition of Cytokine Release HT29 cells IL-8
Method: HT29 cells, a human colon adenocarcinoma cell line, are plated in a 96 well plate (24 hrs) and pre-treated with compounds at the desired concentration for 2 hours before addition of 5 ng/mL of IL-1β (Abcam) for 24 hours. Supernatants are harvested for IL-8 quantification by Sandwich ELISA (Duo-set, R&D System). The IC50 is determined from the dose response curve.

d-U937 cells = assay: LPS-induced TNFα/IL-8 release in d-U937 cells; assay type: cell-based; settings: Homo sapiens
Method: Cells are pre-incubated with final concentrations of test compound for 2 hr and are then stimulated with 0.1 μg/mL of LPS (from E. coli: O111:B4, Sigma) for 4 hr. The supernatant is collected for determination of TNFα and IL-8 concentrations by sandwich ELISA (Duo-set, R&D systems). […] The relative 50% effective concentration (REC50) is determined from the resultant concentration-response curve. The inhibition of IL-8 production is calculated at each concentration of test compound by comparison with vehicle control.

PBMCs [1] = assay: LPS-induced TNFα/IL-8 release in PBMC cells; assay type: cell-based; settings: Homo sapiens, read-out: IC50 Values for Inhibition of Cytokine Release PBMCs IL-8
In short: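 Healthy-donor PBMCs, isolated by density gradient, were pretreated with compound for 2 h and then stimulated with 1 ng/mL E. coli O111:B4 LPS for 24 h at 37 °C, 5% CO2. Supernatant IL-8 and TNFα were quantified by sandwich ELISA.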

PBMCs [2] = assay: IL-2 and IFN gamma release in CD3/CD28 stimulated PBMC cells; assay type: cell-based; settings: Homo sapiens
In short: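 They were cultured with compound for 3 days. IL-2 and IFN-γ in supernatants were quantified by sandwich ELISA, and IC50 was derived from the dose-response curve.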

Syk = Syk (Homo sapiens (Human), UniProt P43405); assay: Syk enzyme inhibition (Z-LYTE FRET); assay type: biochemical
Method: (§1) The enzyme inhibitory activities of compounds disclosed herein are determined by FRET using synthetic peptides labelled with both donor and acceptor fluorophores (Z-LYTE, Invitrogen Ltd., Paisley, UK).
(§2) The relevant enzyme (3000 ng/mL or 2000 ng/mL respectively, 2.5 μL) is incubated with the test compound (either 4 μg/mL, 0.4 μg/mL, 0.04 μg/mL, or 0.004 μg/mL, 2.5 μL each) for 2 hr at RT. The FRET peptides (8 μM, 2.5 μL), and appropriate ATP solutions (2.5 μL, 800 μM for c-Src, and 60 μM ATP for Syk) are then added to the enzymes/compound mixtures and incubated for 1 hr. Development reagent (protease, 5 μL) is added for 1 hr prior to detection in a fluorescence microplate reader (Varioskan® Flash, ThermoFisher Scientific).
(§3) In all cases, the site-specific protease cleaves non-phosphorylated peptide only and eliminates the FRET signal. Phosphorylation levels of each reaction are calculated using the ratio of coumarin emission (donor) over fluorescein emission (acceptor), for which high ratios indicate high phosphorylation and low ratios indicate low phosphorylation levels.

p38 MAPKα = p38 MAPKα (Homo sapiens (Human), UniProt Q16539); assay: p38 MAPKα enzyme inhibition (Z-LYTE FRET, Method 2); assay type: biochemical
p38 MAPKα, sequence (Q16539 whole entry): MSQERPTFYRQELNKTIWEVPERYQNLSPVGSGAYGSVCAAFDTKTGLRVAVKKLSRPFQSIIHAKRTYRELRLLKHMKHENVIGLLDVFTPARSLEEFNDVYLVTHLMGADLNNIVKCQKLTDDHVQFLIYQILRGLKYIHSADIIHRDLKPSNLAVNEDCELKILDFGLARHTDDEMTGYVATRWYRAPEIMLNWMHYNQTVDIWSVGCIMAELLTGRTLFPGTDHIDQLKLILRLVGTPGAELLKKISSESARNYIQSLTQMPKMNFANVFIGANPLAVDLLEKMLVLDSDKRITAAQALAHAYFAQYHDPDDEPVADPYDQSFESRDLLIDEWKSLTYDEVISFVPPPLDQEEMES
Method: as §1
The inhibitory activities of test compounds against the p38 MAPKα isoform (MAPK14: Invitrogen), are evaluated indirectly by determining the level of activation/phosphorylation of the down-stream molecule, MAPKAP-K2. The p38 MAPKα protein (80 ng/mL, 2.5 μL) is mixed with the test compound (2.5 μL of either 4 μg/mL, 0.4 μg/mL, 0.04 μg/mL or 0.004 μg/mL) for 2 hr at RT. […] The mixture is incubated for 1 hr at RT. Development reagent (protease, 5 μL) is added for 1 hr prior to detection in a fluorescence microplate reader (Varioskan® Flash, ThermoFisher Scientific).
as §3

GSK3α = GSK3α (Homo sapiens (Human), UniProt P49840); assay: GSK 3α enzyme inhibition (Z-LYTE FRET, Method 2); assay type: biochemical
GSK3α, sequence (P49840 whole entry): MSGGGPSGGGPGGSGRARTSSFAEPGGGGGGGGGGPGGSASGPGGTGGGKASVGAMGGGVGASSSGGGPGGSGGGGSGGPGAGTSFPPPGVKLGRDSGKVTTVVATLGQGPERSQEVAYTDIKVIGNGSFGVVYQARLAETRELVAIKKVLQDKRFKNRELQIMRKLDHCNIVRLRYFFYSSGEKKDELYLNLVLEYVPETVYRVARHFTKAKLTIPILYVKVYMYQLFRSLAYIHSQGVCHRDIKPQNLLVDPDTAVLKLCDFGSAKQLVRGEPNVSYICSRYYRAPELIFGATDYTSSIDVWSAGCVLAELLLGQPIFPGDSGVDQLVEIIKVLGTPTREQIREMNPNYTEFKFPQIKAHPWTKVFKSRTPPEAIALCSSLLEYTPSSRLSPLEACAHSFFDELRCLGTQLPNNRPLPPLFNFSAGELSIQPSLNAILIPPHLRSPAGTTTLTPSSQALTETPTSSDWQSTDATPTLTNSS
In short: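 Z-LYTE FRET: GSK3α preincubated with compound 2 h at RT, then FRET peptide and ATP added (stocks 8 μM and 40 μM) for 1 h, followed by 1 h protease development. Compound stocks 4–0.004 μg/mL; phosphorylation from coumarin/fluorescein emission ratio.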

c-Src = c-Src (Homo sapiens (Human), UniProt P12931); assay: c-Src enzyme inhibition (Z-LYTE FRET); assay type: biochemical
c-Src, sequence (P12931 whole entry, looked up): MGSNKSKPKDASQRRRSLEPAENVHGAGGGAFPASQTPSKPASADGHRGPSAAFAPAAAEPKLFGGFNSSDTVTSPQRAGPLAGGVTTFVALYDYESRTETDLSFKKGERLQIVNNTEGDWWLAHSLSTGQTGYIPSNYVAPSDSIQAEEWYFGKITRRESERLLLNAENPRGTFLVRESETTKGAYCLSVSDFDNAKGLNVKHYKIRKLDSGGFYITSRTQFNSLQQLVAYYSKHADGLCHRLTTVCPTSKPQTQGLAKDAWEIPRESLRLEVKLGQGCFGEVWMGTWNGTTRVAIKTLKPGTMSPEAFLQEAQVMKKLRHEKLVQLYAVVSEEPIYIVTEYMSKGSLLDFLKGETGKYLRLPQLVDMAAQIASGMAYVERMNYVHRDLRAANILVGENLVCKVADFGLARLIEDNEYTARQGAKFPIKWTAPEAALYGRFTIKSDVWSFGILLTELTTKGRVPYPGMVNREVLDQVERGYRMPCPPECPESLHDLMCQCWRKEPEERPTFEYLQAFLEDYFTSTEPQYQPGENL
Method: as §1, §2, §3

TNBS-induced colitis = settings: for LP inflammation / Ulcer grade: oral gavage BID, conducted over 2 days, mice; for inflammatory cell infiltrate in the reticular and laminar propria zone / ulcer grade and epithelial repair compared to the vehicle control: dosed orally at either 1 or 5 mg/kg
Method: On Day 0 of the study TNBS (200 μL) is administered intra-colonically via a plastic catheter followed by BID dosing of the vehicle, reference or test compound for 2 or 4 days. During the study animals are weighed every day and stool observations are made and recorded as a score, based on stool consistency. At the time of sacrifice on Day 2 (or Day 4) the large intestine is removed and the length and weight recorded. Sections of the colon are taken for either MPO analysis to determine neutrophil infiltration or for histopathology involving scoring to determine disease severity.

[3] = dU937, read-out: IC50 Values for Inhibition of Cytokine Release dU937 cells TNFα
[4] = read-out: IC50 Values for Inhibition of Cytokine Release PBMCs IFNγ
[5] = read-out: IC50 Values for Inhibition of Cytokine Release PBMCs IL-2
[6] = dU937, read-out: IC50 Values for Inhibition of Cytokine Release dU937 cells IL-8

SMILES: COc1ccc(-n2nc(C(C)(C)C)cc2NC(=O)Nc2ccc(Oc3ccnc(Nc4cccc(OS(C)(=O)=O)c4)n3)c3ccccc23)cn1 [Example 3, 3-(4-((4-(3-(3-(tert-Butyl)-1-(6-methoxypyridin-3-yl)-1H-pyrazol-5-yl)ureido)naphthalen-1-yl)oxy)pyrimidin-2-yl)amino)phenyl methanesulfonate]
IC50 (HT29 cells): 2.2 nM | IC50 (d-U937 cells; [3]): 0.3 nM | IC50 (PBMCs [1]): 1.5 nM | IC50 (PBMCs [2]; [4]): 1.2 nM | IC50 (PBMCs [2]; [5]): 9.9 nM | IC50 (Syk): 66 nM | IC50 (p38 MAPKα): 28 nM | IC50 (GSK3α): 2540 nM

SMILES: COc1cc(Nc2nccc(Oc3ccc(NC(=O)Nc4cc(C(C)C)nn4-c4ccc(C)cc4)c4ccccc34)n2)cc(OS(C)(=O)=O)c1 [Example 12, 3-((4-((4-(3-(3-Isopropyl-1-(p-tolyl)-1H-pyrazol-5-yl)ureido)naphthalen-1-yl)oxy)pyrimidin-2-yl)amino)-5-methoxyphenyl methanesulfonate]
IC50 (HT29 cells): 4.3 nM | IC50 (d-U937 cells; [3]): 0.4 nM | IC50 (c-Src): 39 nM | IC50 (PBMCs [1]): 2.8 nM | IC50 (PBMCs [2]; [4]): 4.7 nM | IC50 (PBMCs [2]; [5]): 24.8 nM | IC50 (Syk): 238 nM | IC50 (p38 MAPKα): 422 nM

IC50 (HT29 cells): 7.9 nM
SMILES: Cc1ccc(-n2nc(C(C)C)cc2NC(=O)Nc2ccc(Oc3ccnc(Nc4cccc(N=S(C)(C)=O)c4)n3)c3ccccc23)cc1 [Example 14]
IC50 (PBMCs [1]): 2.4 nM

SMILES: COc1cc(Nc2nccc(Oc3ccc(NC(=O)Nc4cc(C(C)C)nn4-c4ccc(C)cc4)c4ccccc34)n2)cc(S(=O)(=O)C2CC2)c1 [Example 18, 1-(4-((2-((3-(Cyclopropylsulfonyl)-5-methoxyphenyl)amino)pyrimidin-4-yl)oxy)naphthalen-1-yl)-3-(3-isopropyl-1-(p-tolyl)-1H-pyrazol-5-yl)urea]
IC50 (HT29 cells): 6.2 nM | LP inflammation (TNBS-induced colitis; 1 mg/kg): 2.8 ± 0.4 | Ulcer grade (TNBS-induced colitis; 1 mg/kg): 3.3 ± 0.4 | LP inflammation (TNBS-induced colitis; 5 mg/kg): 2.6 ± 0.3 | Ulcer grade (TNBS-induced colitis; 5 mg/kg): 3.0 ± 0.5 | inflammatory cell infiltrate in the reticular and laminar propria zone (TNBS-induced colitis): marked reduction | ulcer grade and epithelial repair compared to the vehicle control (TNBS-induced colitis): marked improvements | IC50 (c-Src): 27 nM | IC50 (PBMCs [1]): 2.1 nM | IC50 (PBMCs [2]; [5]): 84.6 nM | IC50 (Syk): 358 nM | IC50 (p38 MAPKα): 102 nM | IC50 (GSK3α): 2900 nM

SMILES: COc1cc(Nc2nccc(Oc3ccc(NC(=O)Nc4cc(C(C)C)nn4-c4ccc(C)cc4)c4ccccc34)n2)cc(SCCO)c1 [Example 22]
IC50 (HT29 cells): 5.1 nM | LP inflammation (TNBS-induced colitis; 1 mg/kg): 2.6 ± 0.3 | Ulcer grade (TNBS-induced colitis; 1 mg/kg): 2.8 ± 0.4 | LP inflammation (TNBS-induced colitis; 5 mg/kg): 3.8 ± 0.3 | Ulcer grade (TNBS-induced colitis; 5 mg/kg): 3.7 ± 0.4 | inflammatory cell infiltrate in the reticular and laminar propria zone (TNBS-induced colitis): marked reduction | ulcer grade and epithelial repair compared to the vehicle control (TNBS-induced colitis): marked improvements | IC50 (c-Src): 47 nM | IC50 (PBMCs [1]): 2.3 nM | IC50 (PBMCs [2]; [5]): 30.7 nM | IC50 (Syk): 134 nM | IC50 (p38 MAPKα): 114 nM

SMILES: COc1cc(Nc2nccc(Oc3ccc(NC(=O)Nc4cc(C(C)(C)C)nn4-c4ccc(C)cc4)c4ccccc34)n2)cc(OCCCN2CCOCC2)c1 [Example 49, 1-(3-(tert-Butyl)-1-(p-tolyl)-1H-pyrazol-5-yl)-3-(4-((2-((3-methoxy-5-(3-morpholino-propoxy)phenyl)amino)pyrimidin-4-yl)oxy)naphthalen-1-yl)urea]
IC50 (HT29 cells): 2.3 nM | IC50 (c-Src): 23 nM | IC50 (PBMCs [1]): 1.9 nM | IC50 (PBMCs [2]; [4]): 1.2 nM | IC50 (PBMCs [2]; [5]): 54.7 nM | IC50 (Syk): 20 nM | IC50 (p38 MAPKα): 175 nM | IC50 (GSK3α): 7260 nM

SMILES: COCCOCCOCCOc1cc(Nc2nccc(Oc3ccc(NC(=O)Nc4cc(C(C)(C)C)nn4-c4ccc(C)cc4)c(Cl)c3Cl)n2)cc(OC)c1 [Example 53, 1-(3-(tert-Butyl)-1-(p-tolyl)-1H-pyrazol-5-yl)-3-(2,3-dichloro-4-((2-((3-methoxy-5-(2-(2-(2-methoxyethoxyl)ethoxy)ethoxy)phenyl)amino)pyrimidin-4-yl)oxy)phenyl)urea]
IC50 (HT29 cells): 2.4 nM | IC50 (c-Src): 23 nM | IC50 (PBMCs [1]): 3.8 nM | IC50 (PBMCs [2]; [4]): 2.1 nM | IC50 (PBMCs [2]; [5]): 133 nM | IC50 (Syk): 56 nM | IC50 (p38 MAPKα): 816 nM | IC50 (GSK3α): > 10000 nM

SMILES: COc1cc(Nc2nccc(Oc3ccc(NC(=O)Nc4cc(C(C)(C)C)nn4-c4ccc(C)cc4)c4ccccc34)n2)cc(SCCO)c1 [Example 55, 1-(3-(tert-Butyl)-1-(p-tolyl)-1H-pyrazol-5-yl)-3-(4-((2-((3-((2-hydroxyethyl)thio)-5-methoxyphenyl)amino)pyrimidin-4-yl)oxy)naphthalen-1-yl)urea]
IC50 (HT29 cells): 2.4 nM | IC50 (PBMCs [1]): 2 nM | IC50 (PBMCs [2]; [4]): 2 nM | IC50 (PBMCs [2]; [5]): 36.8 nM | IC50 (Syk): 42 nM | IC50 (p38 MAPKα): 200 nM | IC50 (GSK3α): 1230 nM

SMILES: COc1cc(Nc2nccc(Oc3ccc(NC(=O)Nc4cc(C(C)(C)C)nn4-c4ccc(OC)nc4)c4ccccc34)n2)cc(S(=O)(=O)C2CC2)c1 [Example 61, 1-(3-(tert-Butyl)-1-(6-methoxypyridin-3-yl)-1H-pyrazol-5-yl)-3-(4-((2-((3-(cyclopropylsulfonyl)-5-methoxyphenyl)amino)pyrimidin-4-yl)oxy)naphthalen-1-yl)urea]
IC50 (HT29 cells): 4.8 nM | IC50 (c-Src): 73 nM | IC50 (PBMCs [1]): 2 nM | IC50 (PBMCs [2]; [4]): 1.9 nM | IC50 (PBMCs [2]; [5]): 42.4 nM | IC50 (p38 MAPKα): 301 nM | IC50 (GSK3α): 3800 nM

SMILES: COc1cc(Nc2nccc(Oc3ccc(NC(=O)Nc4cc(C(C)(C)C)nn4-c4ccc(C)cc4)c4ccccc34)n2)cc(OCCOCCOCCO)c1 [Example 62, 1-(3-(tert-Butyl)-1-(P-tolyl)-1H-pyrazol-5-yl)-3-(4-((2-((3-(2-(2-(2-hydroxyethoxy)ethoxy)ethoxy)-5-methoxyphenyl)amino)pyrimidin-4-yl)oxy)naphthalen-1-yl)urea]
IC50 (HT29 cells): 2.5 nM | IC50 (c-Src): 4 nM | IC50 (PBMCs [1]): 1.5 nM | IC50 (PBMCs [2]; [4]): 2.1 nM | IC50 (PBMCs [2]; [5]): 52.9 nM | IC50 (Syk): 6 nM | IC50 (p38 MAPKα): 95 nM

SMILES: COCCOCCOCCOc1cc(Nc2nccc(Oc3ccc(NC(=O)Nc4cc(C(C)(C)C)nn4-c4ccc(N(C)C)cc4)c4ccccc34)n2)cc(OC)c1 [Example 63, 1-(3-(tert-Butyl)-1-(4-(dimethylamino)phenyl)-1H-pyrazol-5-yl)-3-(4-((2-((3-methoxy-5-(2-(2-(2-methoxyethoxy)ethoxy)ethoxy)phenyl)amino)pyrimidin-4-yl)oxy)naphthalen-1-yl)urea]
IC50 (HT29 cells): 2 nM | IC50 (d-U937 cells; [6]): 0.6 nM | IC50 (d-U937 cells; [3]): 0.4 nM | IC50 (c-Src): 13 nM | IC50 (PBMCs [1]): 2 nM | IC50 (PBMCs [2]; [4]): 1.5 nM | IC50 (PBMCs [2]; [5]): 76.2 nM | IC50 (p38 MAPKα): 187 nM | IC50 (GSK3α): 4820 nM

SMILES: COc1cc(Nc2nccc(Oc3ccc(NC(=O)Nc4cc(C(C)(C)C)nn4-c4ccc(C)cc4)c(Cl)c3Cl)n2)cc(OCCOCCOCCO)c1 [Example 71, 1-(3-(tert-Butyl)-1-(p-tolyl)-1H-pyrazol-5-yl)-3-(2,3-dichloro-4-((2-((3-(2-(2-(2-hydroxyethoxyl)ethoxy)ethoxy)-5-methoxyphenyl)amino)pyrimidin-4-yl)oxy)phenyl)urea]
IC50 (d-U937 cells; [6]): 1.3 nM | IC50 (d-U937 cells; [3]): 1 nM | IC50 (c-Src): 19 nM | IC50 (PBMCs [1]): 1.8 nM | IC50 (PBMCs [2]; [4]): 1.1 nM | IC50 (PBMCs [2]; [5]): 60.8 nM | IC50 (Syk): 23 nM | IC50 (p38 MAPKα): 740 nM | IC50 (GSK3α): 7740 nM
